Data taken from patent US20240156825A1, “USE OF SELECTIVE VEGFR2 AND FGFR1 INHIBITORS” (Fountain Therapeutics Inc., priority 2022, published 2024).
Like-named read-outs stand apart in the source and are kept apart here.

Key:
FGFR1 [1] = target: T1, FGFR1 (Homo sapiens, UniProt P11362); conditions: cited from earlier work
any gene target = conditions: cited from earlier work
Zmpste24−/− mice [2] = assay: Mouse model of progeria: body fat (Echo MRI), lean muscle, body weight, intrascapular brown fat; type: in vivo; conditions: for Body fat (Echo MRI) vs vehicle / Intrascapular brown fat mass (percent of body weight) vs vehicle: Brivanib alaninate 50, SU5402 25, Cediranib maleate 5, Regorafenib 10, infigratinib 5 mg/kg
Description: Zmpste24 mice, a progeria model mouse line, were dosed with either 50 mg/kg Brivanib alaninate for 56 days, 5 days on, 2 days off (QD5), or vehicle alone. The dose was administered via oral gavage as a suspension of 18% (w/v) PEG400 2% (w/v) Tween-80 in water . The vehicle alone was 18% (w/v) PEG400 2% (w/v) Tween-80 in water.
The body fat of the mice was measured by an Echo MRI throughout the treatment.
Samples of intrascapular brown adipose tissue from 15 week old mice treated with Brivanib Alaninate or vehicle for 56 days underwent Hematoxylin and Eosin (H&E) staining.
Zmpste24−/− mice, a progeria model mouse line, were dosed with either 25 mg/kg SU5402 for 56 days, 5 days on, 2 days off (QD5) or vehicle alone. The dose was administered via oral gavage as a suspension of 5% (w/v) DMSO 9% (w/v) PEG400 1% (w/v) Tween-80 in saline. The vehicle alone was 5% (w/v) DMSO 9% (w/v) PEG400 1% (w/v) Tween-80 in saline.
The body fat of the mice was measured by an Echo […]. Lean muscle and body weight were also measured.
The dose was administered via oral gavage as a suspension of 18% (w/v) PEG400 2% (w/v) Tween-80 in water . The vehicle alone was 18% (w/v) PEG400 2% (w/v) Tween-80 in water.
The body fat of the mice was measured by an Echo MRI. […] There was also no alteration of intrascapular brown adipose tissue mass (FIG. 5D).
The dose was administered via oral gavage as a suspension of 18% (w/v) PEG400 2% (w/v) Tween-80 in water. The vehicle alone was 18% (w/v) PEG400 2% (w/v) Tween-80 in water.
The body fat of the mice was measured by an Echo MM. […] There was also no alteration of intrascapular brown adipose tissue mass (FIG. 6D).
The body fat of the mice was measure by an Echo MRI. […] There was also no alteration of intrascapular brown adipose tissue mass (FIG. 7D). […]

FGFR1 [3] = target: T1, FGFR1
VEGFR2 [4] = target: T2, VEGFR2 (Homo sapiens, UniProt P35968); conditions: relative IC50: reported IC50 toward VEGFR2 divided by next lowest reported IC50 to any gene target
VEGFR2 [5] = target: T2, VEGFR2; conditions: read-out: VEGFR2 IC50_μM; reported IC50 to VEGFR2; cited from earlier work
VEGFR2 and FGFR1 = assay: Selection of compounds that selectively inhibit both VEGFR2 and FGFR1 (average relative IC50); type: biochemical;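 also: relative IC50 is the IC50 for VEGFR2 or FGFR1 divided by the next-lowest IC50 reported against any target gene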
Zmpste24−/− mice [6] = assay: Mouse model of progeria: bone loss score of vertebrae and femur (H&E sections); type: in vivo; conditions: 50 mg/kg oral QD5 56 days, 15 weeks of age
Description: Zmpste24−/− mice were dosed with either 50 mg/kg Brivanib Alaninate for 56 days, 5 days on, 2 days off (QD5), or vehicle alone. The dose was administered via oral gavage as a suspension of 18% (w/v) PEG400 2% Tween-80 (w/v) in water . The vehicle alone was 18% (w/v) PEG400 2% (w/v) Tween-80 in water.
The mice were assessed for bone loss in the vertebrae and femur at 15 weeks of age. Bone loss was scored by a pathologist using H&E stained sections of vertebrae or femur samples by the following criteria:
The mice that are treated with a selective VEGFR2 inhibitor and a selective FGFR1 inhibitor are also assessed for bone loss in the vertebrae and femur. Bone loss is scored by a pathologist using the criteria in Example 2.

[7] = system: C57BL6 mice fed a high fat, high cholesterol, high fructose diet; assay: Mouse model of diet induced fatty liver disease; type: in vivo; conditions: 28 days
[8] = reported IC50 to FGFR1, read-out: FGFR1 IC50_μM
[9] = lowest reported IC50 to any gene target, read-out: Min IC50_μM
[10] = relative IC50: reported IC50 toward FGFR1 divided by next lowest reported IC50 to any gene target
[11] = average of VEGFR2 and FGFR1 relative IC50
[12] = lowest reported IC50 to any gene target, read-out: min IC50
[13] = 50 mg/kg i.p. once a day, relative to standard diet
[14] = Table 2, list of selective inhibitors of FGFR1, read-out: FGFR1 IC50_μM: reported IC50 to FGFR1
[15] = Table 2, lowest reported IC50 to any gene target, read-out: Min IC50_μM
[16] = oral gavage QD5 for 56 days, SU5402 25, Cediranib maleate 5, Regorafenib 10, infigratinib 5 mg/kg

T2 sequence (P35968 20-1356, species assumed): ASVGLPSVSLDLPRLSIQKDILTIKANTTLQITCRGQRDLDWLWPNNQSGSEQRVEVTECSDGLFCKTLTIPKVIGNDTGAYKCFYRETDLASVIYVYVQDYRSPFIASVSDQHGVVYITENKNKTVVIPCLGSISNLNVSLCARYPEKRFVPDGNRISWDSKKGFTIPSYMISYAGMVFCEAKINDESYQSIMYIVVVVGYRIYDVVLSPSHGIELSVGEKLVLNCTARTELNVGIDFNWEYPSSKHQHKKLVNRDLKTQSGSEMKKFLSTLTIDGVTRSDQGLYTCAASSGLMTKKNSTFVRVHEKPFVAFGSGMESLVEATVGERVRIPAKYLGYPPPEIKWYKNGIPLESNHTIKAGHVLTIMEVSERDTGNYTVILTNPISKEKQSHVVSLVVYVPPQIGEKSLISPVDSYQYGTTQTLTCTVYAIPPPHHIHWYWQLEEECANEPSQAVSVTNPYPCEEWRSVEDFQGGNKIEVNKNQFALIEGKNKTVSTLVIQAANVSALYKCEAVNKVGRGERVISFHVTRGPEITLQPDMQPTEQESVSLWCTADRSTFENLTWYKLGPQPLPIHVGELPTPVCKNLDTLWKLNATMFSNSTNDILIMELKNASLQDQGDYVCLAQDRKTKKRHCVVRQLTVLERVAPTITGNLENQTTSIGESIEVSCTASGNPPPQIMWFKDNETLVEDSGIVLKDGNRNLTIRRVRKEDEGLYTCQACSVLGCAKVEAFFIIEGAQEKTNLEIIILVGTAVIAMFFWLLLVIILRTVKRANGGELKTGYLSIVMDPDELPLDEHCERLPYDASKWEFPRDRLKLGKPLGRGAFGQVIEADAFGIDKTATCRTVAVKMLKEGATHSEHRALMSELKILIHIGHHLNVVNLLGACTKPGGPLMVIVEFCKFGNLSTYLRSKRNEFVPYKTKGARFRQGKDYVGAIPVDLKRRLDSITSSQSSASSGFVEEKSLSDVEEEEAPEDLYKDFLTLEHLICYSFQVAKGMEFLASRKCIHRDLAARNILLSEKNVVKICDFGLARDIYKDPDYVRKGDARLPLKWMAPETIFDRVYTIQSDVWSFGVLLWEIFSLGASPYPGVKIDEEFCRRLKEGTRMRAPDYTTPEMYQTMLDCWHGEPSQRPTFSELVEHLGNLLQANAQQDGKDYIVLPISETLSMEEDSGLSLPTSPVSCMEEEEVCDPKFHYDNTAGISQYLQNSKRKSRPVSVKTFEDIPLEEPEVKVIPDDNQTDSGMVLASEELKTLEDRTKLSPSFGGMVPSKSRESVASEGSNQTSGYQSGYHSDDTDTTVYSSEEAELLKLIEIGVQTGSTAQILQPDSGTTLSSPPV
T1 sequence (P11362 22-822, species assumed): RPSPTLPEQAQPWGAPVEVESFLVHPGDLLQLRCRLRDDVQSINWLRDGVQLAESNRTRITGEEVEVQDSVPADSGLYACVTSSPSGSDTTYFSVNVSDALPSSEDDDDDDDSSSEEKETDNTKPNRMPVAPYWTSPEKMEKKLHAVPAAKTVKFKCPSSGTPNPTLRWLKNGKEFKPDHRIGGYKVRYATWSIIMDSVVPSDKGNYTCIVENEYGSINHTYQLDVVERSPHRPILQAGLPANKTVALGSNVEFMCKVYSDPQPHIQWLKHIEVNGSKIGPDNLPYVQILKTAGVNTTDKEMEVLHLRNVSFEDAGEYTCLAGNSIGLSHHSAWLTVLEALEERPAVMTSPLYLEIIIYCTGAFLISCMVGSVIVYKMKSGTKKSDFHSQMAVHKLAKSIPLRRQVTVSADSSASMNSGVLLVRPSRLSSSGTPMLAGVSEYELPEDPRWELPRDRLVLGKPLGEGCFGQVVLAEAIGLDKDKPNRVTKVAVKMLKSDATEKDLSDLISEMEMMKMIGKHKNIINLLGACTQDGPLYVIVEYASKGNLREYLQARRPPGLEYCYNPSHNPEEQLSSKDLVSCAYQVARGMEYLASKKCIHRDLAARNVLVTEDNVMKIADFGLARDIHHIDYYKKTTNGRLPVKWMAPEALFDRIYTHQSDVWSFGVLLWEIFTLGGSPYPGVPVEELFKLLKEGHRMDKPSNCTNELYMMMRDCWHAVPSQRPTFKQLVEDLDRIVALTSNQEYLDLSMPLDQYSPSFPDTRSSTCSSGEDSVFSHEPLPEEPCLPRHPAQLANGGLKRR

For `CC(C)(C)NC(=O)Nc1nc2nc(N)ncc2cc1-c1ccccc1` [compound 5329111], the IC50 (FGFR1 [1]; [8]) is given as 3700 nM and the IC50 (any gene target; [9]) is given as 3710 nM.

In the case of `Cc1oc2c(c1C(=O)N1CC[C@H](N)C1)C(=O)c1c(c(O)c3ccccc3c1O)C2=O` [compound 137631210], the IC50 (FGFR1 [1]; [8]) is given as 5000 nM and the IC50 (any gene target; [9]) is given as 5000 nM.

With `Cc1cc2c(F)c(Oc3ncnn4cc(OC[C@@H](C)OC(=O)[C@@H](C)N)c(C)c34)ccc2[nH]1` [compound 11234052, Brivanib alaninate (Brivanib)] the “Lipid content in intrascapular brown adipose tissue (H&E)” value (Zmpste24−/− mice [2]; 15 week old mice, 50 mg/kg for 56 days) was “increased lipid content”, the “Body fat (Echo MRI) vs vehicle” value (Zmpste24−/− mice [2]; oral gavage QD5 for 56 days) was “increase in body mass starting at 6 weeks of age” and the “Intrascapular brown fat mass (percent of body weight) vs vehicle” value (Zmpste24−/− mice [2]; oral gavage QD5 for 56 days) was “made up for more of the percent of the body weight”. For the same compound, the “FGFR1, rIC50” value (FGFR1 [3]; [10]) was 1.1, the “VEGFR2, rIC50” value (VEGFR2 [4]) was 0.9 and the IC50 (VEGFR2 [5]) was 25 nM. For the same compound, the “avg rIC50” value (VEGFR2 and FGFR1; [11]) was 1.0, the IC50 (any gene target; [12]) was 25 nM and the IC50 (any gene target; next lowest IC50 value to any gene target, read-out: Min IC50_μM) was 28 nM. For the same compound, the “Bone loss score, femur: most severe score in the group” value (Zmpste24−/− mice [6]) was 0.5 (0.5 = less than 1%), the “Bone loss score, vertebrae: most severe score in the group” value (Zmpste24−/− mice [6]) was 4 (4 = 51-75%) and the “Bone loss scores vs vehicle” value (Zmpste24−/− mice [6]) was “lower bone loss scores”. The “Share of mice with the most severe score, femur” value (Zmpste24−/− mice [6]) was “about 30%”, the “Share of mice with the most severe score, vertebrae” value (Zmpste24−/− mice [6]) was “about 15%” and the “Liver lipid content (H&E) vs vehicle” value ([7]; 25 mg/kg i.p. once a day) was “decreased liver lipid content”. For the same compound, the “Size of adipocytes in the epididymal fat pad vs vehicle” value ([7]; 25 mg/kg i.p. once a day) was “decreased the size of adipocytes”, the “Thickness of the abdominal subcutaneous adipose” value ([7]; 25 mg/kg i.p. once a day) was “increased in the thickness” and the “Increase in blood urea nitrogen vs fatty liver diet + vehicle” value [7, 13] was “less of an increase”. For the same compound, the “Increase in body weight vs fatty liver diet + vehicle” value [7, 13] was “less of an increase”, the “Increase in liver mass vs fatty liver diet + vehicle” value [7, 13] was “less of an increase” and the “Increase in serum cholesterol vs fatty liver diet + vehicle” value [7, 13] was “less of an increase”. For the same compound, the “Increase in serum triglycerides vs fatty liver diet + vehicle” value [7, 13] was “less of an increase”.

In the case of `CONC(=O)c1cc(Nc2ncnn3cc(-c4nnc(C)o4)c(C(C)C)c23)c(F)cc1F` [compound 10478569, 2,4-Difluoro-5-[5-isopropyl-6-(5-methyl-[1,3,4]oxadiazol-2-yl)-pyrrolo[2,1-f][1,2,4]triazin-4-ylamino]-N-methoxy-benzamide, reference compound], the “FGFR1, rIC50” value (FGFR1 [3]; [10]) is listed as 1.0, the “VEGFR2, rIC50” value (VEGFR2 [4]) is listed as 1.2 and the IC50 (FGFR1 [1]; [8]) is listed as 6.5 nM. The “avg rIC50” value (VEGFR2 and FGFR1; [11]) was 1.1.

In the case of `CC(C)(C)NC(=O)Nc1nc2nc(N)ncc2cc1-c1c(Cl)cccc1Cl` [compound 5328112], the IC50 (FGFR1 [1]; [8]) is given as 110 nM and the IC50 (any gene target; [9]) is given as 130 nM.

For `COc1cc(CCc2cc(Nc3ncnc4cc(N5CCN6CCCCC6C5)ccc34)n[nH]2)cc(OC)c1` (stereo not drawn) [compound 127047969], the IC50 (FGFR1 [1]; [8]) is given as 0.2 nM and the IC50 (any gene target; [9]) is given as 0.2 nM.

For `NS(=O)(=O)c1ccc2c(c1)/C(=C/c1[nH]c3c(c1CCC(=O)O)CCCC3)C(=O)N2` [compound 5329165, Indolin-2-one deriv. 9c, reference compound], the “FGFR1, rIC50” value (FGFR1 [3]; [10]) is given as 0.3, the “VEGFR2, rIC50” value (VEGFR2 [4]) is given as 3.0 and the IC50 (FGFR1 [1]; [14]) is given as 200 nM. The “avg rIC50” value (VEGFR2 and FGFR1; [11]) was 1.7, the IC50 (any gene target; [15]) was 600 nM and the IC50 (any gene target; [12]) was 200 nM.

In the case of `CONC(=O)c1cc(Nc2ncnn3cc(-c4nnco4)c(C(C)C)c23)c(F)cc1F` [compound 11464544, 2,4-Difluoro-5-(5-isopropyl-6-[1,3,4]oxadiazol-2-yl-pyrrolo[2,1-f][1,2,4]triazin-4-ylamino)-N-methoxy-benzamide, reference compound], the “FGFR1, rIC50” value (FGFR1 [3]; [10]) is listed as 1.0, the “VEGFR2, rIC50” value (VEGFR2 [4]) is listed as 1.4 and the IC50 (FGFR1 [1]; [8]) is listed as 54 nM. The “avg rIC50” value (VEGFR2 and FGFR1; [11]) was 1.2, the IC50 (any gene target; [9]) was 54 nM and the IC50 (any gene target; [12]) was 54 nM.

For `COC(=O)C1=C(c2ccccc2)c2ccncc2C1=O` [compound 44330158], the IC50 (FGFR1 [1]; [8]) is given as 6800 nM and the IC50 (any gene target; [9]) is given as 6800 nM.

For `CONC(=O)c1cc(Nc2ncnn3cc(-c4nnc(C(F)(F)F)o4)c(C(C)C)c23)c(F)cc1F` [compound 11488852, 2,4-Difluoro-5-[5-isopropyl-6-(5-trifluoromethyl-[1,3,4]oxadiazol-2-yl)-pyrrolo[2,1-f][1,2,4]triazin-4-ylamino]-N-methoxy-benzamide, reference compound], the “FGFR1, rIC50” value (FGFR1 [3]; [10]) is given as 1.0, the “VEGFR2, rIC50” value (VEGFR2 [4]) is given as 1.1 and the IC50 (FGFR1 [1]; read-out: FGFR1 IC50_μM, reported IC50 to FGFR1) is given as 33 nM. For the same compound, the “avg rIC50” value (VEGFR2 and FGFR1; [11]) was 1.0, the IC50 (any gene target; [9]) was 33 nM and the IC50 (any gene target; [12]) was 33 nM.

In the case of `Cc1cc(C)c(C)c(-c2cc3cnc(NCCCN4CCN(C)CC4)nc3nc2NC(=O)NC(C)(C)C)c1C` [compound 10602350], the IC50 (FGFR1 [1]; [8]) is given as 140 nM and the IC50 (any gene target; [9]) is given as 140 nM.

For `O=c1[nH]c(=O)n(-c2ccc(Oc3ccccc3)cc2)c(=O)n1-c1ccccc1` [compound 139434105], the IC50 (FGFR1 [1]; [14]) is listed as 890 nM and the IC50 (any gene target; [15]) is listed as 1300 nM.

In the case of `C=CC(=O)Nc1ccc(CN(C(=O)Nc2c(Cl)c(OC)cc(OC)c2Cl)c2cc(Nc3ccc(N4CCN(C)CC4)cc3)ncn2)cc1` [compound 73707531], the IC50 (FGFR1 [1]; [8]) is given as 1 nM and the IC50 (any gene target; [9]) is given as 1 nM.

With `Cc1c[nH]c(/C=C2\C(=O)Nc3ccccc32)c1CCC(=O)O` [compound 5289418, 3-[(3-(2-Carboxyethyl)-4-methylpyrrol-2-YL)methylene]-2-indolinone] the “Body fat (Echo MRI) vs vehicle” value (Zmpste24−/− mice [2]; oral gavage QD5 for 56 days) was “increase in body mass starting at 9 weeks of age”, the “Intrascapular brown fat mass (percent of body weight) vs vehicle” value (Zmpste24−/− mice [2]; oral gavage QD5 for 56 days) was “made up for more of the body weight percent” and the “Body weight vs vehicle” value (Zmpste24−/− mice [2]; [16]) was “increase in body weight starting at 12 weeks of age”. The “Lean muscle vs vehicle” value (Zmpste24−/− mice [2]; [16]) was “increase in lean muscle starting at 15 weeks of age”, the “FGFR1, rIC50” value (FGFR1 [3]) was 1.5 and the “VEGFR2, rIC50” value (VEGFR2 [4]) was 0.7. The “avg rIC50” value (VEGFR2 and FGFR1) was 1.1, the IC50 (any gene target; read-out: Min IC50_μM) was 30 nM and the IC50 (any gene target; read-out: min IC50) was 30 nM.

For `COC(=O)C1=C(c2ccccc2)c2cc(C)ccc2C1=O.COC(=O)C1=C(c2ccccc2)c2ccc(C)cc2C1=O` [compound 44330102], the IC50 (FGFR1 [1]; [8]) is listed as 6400 nM and the IC50 (any gene target; [9]) is listed as 6400 nM.

In the case of `NC(=O)C1=C(c2ccc(Cl)cc2)c2ccccc2C1=O` [compound 44330203], the IC50 (FGFR1 [1]; [8]) is given as 5400 nM and the IC50 (any gene target; [9]) is given as 5400 nM.

In the case of `C=CC(=O)N1CC[C@H](n2cc(-c3cc4cc(C)cc(OC)c4s3)c3c(N)ncnc32)C1` [compound 138617501], the IC50 (FGFR1 [1]; [14]) is listed as 0.3 nM and the IC50 (any gene target; [15]) is listed as 0.8 nM.
